Where no end group is shown, it is not given here.
Tests used:
[1] = test system: differentiated HL60 cells; test: Arachidonic acid (AA) release in [3H]AA-labeled dHL60 cells; assay type: cell-based, human
Description: (§1) U937 (human histiocytic lymphoma cells), HL60 (human promyelocytic leukemia cells), Raw 264.7 (mouse macrophage), Jurkat (human acute T cell leukemia), PC12 (rat adrenal pheochromocytoma cells), 3Y1 (Rat embryonic fibroblasts), 3T3L1 (preadipocytes), and NCI-H292 (human mucoepidermoid pulmonary carcinoma cells) were obtained from the American Type Culture Collection (Rockville, Md.) and maintained as recommended. FPR- or FPRL1 expressing RBL-2H3 cells were cultured as described previously (He et al. J. Immunol. 2000. 165: 4598-4605). Cells were maintained at about 1×10^6 cells/ml under standard incubator conditions (humidified atmosphere, 95% air, 5% CO2, at 37° C.). HL60 cells were induced to differentiate into the granulocyte phenotype by adding dimethylsulfoxide (DMSO) (final concentration 1.25%, v/v) for 4 days to the culture medium, as described previously (Itoh et al. Blood. 1998. 92: 1432-1441).
For the initial screening of the PS-SPCLs, we measured the AA release stimulating activity of each peptide pool. Cultured dHL60 cells (10^7 cells/ml) were pre-labeled with 0.5 μCi/ml of (^3H)-AA in RPMI 1640 medium containing 10% FBS for 90 min at 37° C. in a humidified incubator supplied with 95% air and 5% CO2, as described previously (Bae et al. J. Immunol. 2000. 164: 4089-4096). The labeled cells were then washed twice with serum-free RPMI 1640 and incubated in RPMI 1640 medium containing 0.1% fatty acid-free BSA for 15 min at 37° C. After discarding the medium, the cells were stimulated with various concentrations of peptide for the indicated times. Radioactivity in the medium and of collected cells was determined with a liquid scintillation counter. When investigating the effects of inhibitors, cells were preincubated with the indicated concentrations of each inhibitor or vehicle for 15 min prior to stimulation.

[2] = test system: differentiated HL60 cells; test: [Ca2+]i increase in fura-2 loaded dHL60 cells; assay type: cell-based, human
Description: as §1
(§2) The level of [Ca^2+]i was determined using Grynkiewicz's method using fura-2/AM (Grynkiewicz et al. J. Biol. Chem. 1985. 260: 3440-3550). Briefly, prepared cells were incubated with 3 μM of fura-2/AM at 37° C. for 50 min in serum-free RPMI 1640 medium under continuous stirring. 2×10^6 cells were aliquoted for each assay in Ca^2+ free Locke's solution (154 mM NaCl, 5.6 mM KCl, 1.2 mM MgCl2, 5 mM HEPES, pH 7.3, 10 mM glucose, and 0.2 mM EGTA). Fluorescence changes were measured at the dual excitation wavelength of 340 nm and 380 nm, and the calculated fluorescence ratio was translated into [Ca^2+]i.

[3] = test system: human neutrophils; test: Superoxide generation (cytochrome c reduction) in human neutrophils; assay type: cell-based; conditions: 1 μM of peptide, cytochrome c reduction
Description: Peripheral blood leukocyte concentrates were donated by the Ulsan Red Cross Blood Center (Ulsan, Korea). PBMCs were separated on a Histopaque-1077 gradient. After two washings with HBSS without Ca^2+ and Mg^2+, the PBMCs were suspended in 10% FBS containing RPMI and incubated for 60 min at 37° C. to let the monocytes attach to the culture dish. Cells were washed 5 times with warmed RPMI medium to remove lymphocytes, and then the attached monocytes were collected, as described previously (Bae et al. J. Leukoc. Biol. 1999. 65: 241-248). Human neutrophils were isolated according to standard procedures; i.e., dextran sedimentation, hypotonic lysis of erythrocytes, and using a medium lymphocyte separation gradient, as described previously (Seo et al. J. Immunol. 1997. 158: 1895-1901). Isolated human leukocytes were then used promptly.
We determined superoxide anion generation by measuring cytochrome c reduction using a microtiter 96 well plate ELISA reader (Bio-Tekinstruments, EL312e, Winooski, Vt.) as described previously (Bae et al. Blood. 2001. 97: 2854-2862). Human neutrophils (1×10^6 cells/100 μl of RPMI 1640 medium per well of a 96-well plate) were preincubated with 50 μM of cytochrome c at 37° C. for 1 min and then incubated with the indicated peptide concentrations. Superoxide generation was determined from change in light absorption at 550 nm over 5 minutes at 1 min intervals.

[4] = molecular target: T1, FPRL1 (Homo sapiens, UniProt P25090); test: [Ca2+]i increase in FPRL1-expressing RBL-2H3 cells; assay type: cell-based; conditions: 10 μM of each peptide (FIG. 7)
T1 construct: expressed in transfected cells; host or cells: RBL-2H3
T1 sequence (P25090 1-351): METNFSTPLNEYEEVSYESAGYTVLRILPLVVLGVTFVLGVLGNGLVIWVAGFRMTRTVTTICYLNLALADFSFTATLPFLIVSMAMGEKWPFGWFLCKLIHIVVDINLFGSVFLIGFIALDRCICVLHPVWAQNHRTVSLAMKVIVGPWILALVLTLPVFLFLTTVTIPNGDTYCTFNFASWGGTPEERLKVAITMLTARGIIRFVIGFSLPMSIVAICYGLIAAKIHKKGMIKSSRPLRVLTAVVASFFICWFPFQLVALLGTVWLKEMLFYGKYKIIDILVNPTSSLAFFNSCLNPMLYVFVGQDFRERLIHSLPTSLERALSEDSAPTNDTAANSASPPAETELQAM
Description: as §1, §2

[5] = molecular target: T2, FPR (Homo sapiens, UniProt P21462); test: [Ca2+]i increase in FPR-expressing RBL-2H3 cells; assay type: cell-based; conditions: data not shown
T2 construct: expressed in transfected cells; host or cells: RBL-2H3
T2 sequence (P21462 1-350): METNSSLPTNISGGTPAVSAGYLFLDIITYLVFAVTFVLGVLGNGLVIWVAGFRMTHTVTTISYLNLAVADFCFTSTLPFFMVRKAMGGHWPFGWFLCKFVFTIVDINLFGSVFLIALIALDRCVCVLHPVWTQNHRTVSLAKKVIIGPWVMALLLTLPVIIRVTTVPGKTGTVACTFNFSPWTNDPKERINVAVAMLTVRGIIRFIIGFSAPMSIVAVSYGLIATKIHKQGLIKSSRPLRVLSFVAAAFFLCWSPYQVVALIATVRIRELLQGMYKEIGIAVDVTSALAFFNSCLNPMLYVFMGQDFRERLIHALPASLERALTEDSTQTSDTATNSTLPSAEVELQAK
Description: as §1, §2

[6] = test system: undifferentiated HL60 cells; test: [Ca2+]i increase in undifferentiated HL60 cells; assay type: cell-based, human
Description: as §1, §2

[7] = test system: ERK; test: ERK phosphorylation in dHL60 cells (anti-phospho-ERK immunoblot); assay type: cell-based, human
Description: Each sample (30 μg of protein) was subjected to 8% SDS-PAGE, and phosphorylated ERK was quantified by immunoblot analysis with anti-phospho-ERK antibody. The results shown are from a single experiment representative of at least three independent experiments.
Extracellular signal regulated protein kinase (ERK) is a well-known intracellular enzyme that mediates diverse cellular responses (Sugden et al. Cell Signal. 1997. 9: 337-351). […] To compare the intracellular signaling involving these 4 peptides, dHL60 cells were pretreated either with LY294002 (50 μM), GF109203X (5 μM), or PD98059 (50 μM) or left untreated as a control. After being incubated for the indicated periods (15 minutes for LY294002 and GF109203X, 60 minutes for PD98059), the cells were stimulated with 1 μM of each peptide for 5 minutes.

[8] = test system: human neutrophils; test: Chemotaxis assay (modified Boyden chamber), neutrophils; assay type: cell-based; conditions: concentrations less than 10 μM
Description: (§3) FIGS. 6A and 6B show chemotactic effect of peptides. Assays were performed using a modified Boyden chamber assay, as described in the Examples. Isolated human neutrophils (A) or monocytes (B) (1×10^6 cells/ml in serum free RPMI) were added to the upper wells of a 96-well chemotaxis chamber and migration across a 3 μm pore size (5 μm for monocytes) polycarbonate membrane was assessed after 2 hrs incubation at 37° C. The numbers of migrated cells were determined by counting them in a high power field (400×). Results are presented as means±S.E. of three independent experiments each performed in duplicate.
Chemotaxis assays were performed using multiwell chambers (Neuroprobe Inc., Gaithersburg, Md.) (Bae et al. Blood. 2001. 97: 2854-2862). Briefly, prepared human monocytes were suspended in RPMI at a concentration of 1×10^6 cells/ml, and 25 μl of the suspension was then placed onto the upper well of a chamber separated by a 5 μm polyhydrocarbon filter (3 μm pores size not polyvinylpyrrolidone coated, as is needed for neutrophils) from peptides or N-formyl-methionyl-leucyl-phenylalanine (fMLF) in the lower well. […] Stained cells were counted in five randomly chosen high power fields (HPF) (400×) (Bae et al. Blood. 2001. 97: 2854-2862).

[9] = test system: human monocytes; test: Chemotaxis assay (modified Boyden chamber), monocytes; assay type: cell-based; conditions: FIG. 6B; control peptide at concentrations less than 10 μM
Description: as §3
Chemotaxis assays were performed using multiwell chambers (Neuroprobe Inc., Gaithersburg, Md.) (Bae et al. Blood. 2001. 97: 2854-2862). Briefly, prepared human monocytes were suspended in RPMI at a concentration of 1×10^6 cells/ml, and 25 μl of the suspension was then placed onto the upper well of a chamber separated by a 5 μm polyhydrocarbon filter (3 μm pores size not polyvinylpyrrolidone coated, as is needed for neutrophils) from peptides or N-formyl-methionyl-leucyl-phenylalanine (fMLF) in the lower well. After incubation for 2 hours (90 minutes for neutrophils) at 37° C., non-migrated cells were removed by scraping, and cells that migrated across the filter were dehydrated, fixed, and stained with hematoxylin (Sigma, St. Louis, Mo.). Stained cells were counted in five randomly chosen high power fields (HPF) (400×) (Bae et al. Blood. 2001. 97: 2854-2862).

Substance	AA release stimulating activity (in words) ([1]; dHL60 cells, 10 μM)	Effect of cPLA2-specific inhibitors AACOCF3 and MAFP on peptide-induced AA release ([1]; dHL60 cells, inhibitor pretreatment 15 min, 1 μM peptide)	Folds of increase (% of total), arachidonic acid release ([1]; differentiated HL60 cells, 10 μM of peptide)	Concentration of maximal activity, [Ca^2+]i increase ([2]; dHL60 cells, data not shown)	[Ca^2+]i ([2]; differentiated HL60 cells, fura-2, 1 μM of peptide)	Superoxide production [3]	[Ca^2+]i increase in FPRL1-expressing RBL-2H3 cells [4]	[Ca^2+]i in FPR-expressing RBL-2H3 cells / ligand for FPR [5]	[Ca^2+]i increase in undifferentiated HL60 cells ([6]; peptides 10 μM (FIG. 8))	Effect of PTX on peptide-stimulated calcium signaling ([6]; undifferentiated HL60 cells, data not shown)	Phosphorylation level of ERK ([7]; dHL60 cells (FIG. 9))	Effect of GF109203X (PKC) on peptide-induced ERK phosphorylation ([7]; dHL60 cells, GF109203X (5 μM) 15 minutes, 1 μM peptide 5 minutes)	Effect of LY294002 (PI3K) on peptide-induced ERK phosphorylation ([7]; dHL60 cells, LY294002 (50 μM) 15 minutes, 1 μM peptide 5 minutes)	Effect of PD98059 (MEK) on peptide-induced ERK phosphorylation ([7]; dHL60 cells, PD98059 (50 μM) 60 minutes, 1 μM peptide 5 minutes)	Time of maximal ERK activation after stimulation ([7]; dHL60 cells, data not shown)	Cellular chemotaxis in neutrophils (in words) [8]	Cellular chemotaxis in human monocytes (in words) [9]
RKYYYM-NH2 [Peptide P18]	most potent	blocked	2.61 ± 0.295 folds	approximately 3 μM	150 ± 14.5 nM	28.4 ± 3.21 nmole/10^6 cells	induced calcium increase	not for FPR	dramatically induced	partially inhibited	dramatic increase	completely blocked	not by LY294002	partially blocked	5 min	–	–
LFMYHP [reference compound]	–	–	–	–	–	–	not to be able to induce calcium increase	–	–	–	–	–	–	–	–	did not induce	did not induce

Reference: patent US7622551B2, “Leukocyte stimulating peptides” (POSCO, priority 2004, dated 2009)
